Experiments:
NpR3784 GAF domain = target: T1, NpR3784 GAF domain (Nostoc punctiforme, UniProt B2J457); assay: near-infrared fluorescence of E. coli co-expressing heme oxygenase; type: cell-based; conditions: weak binding; BV produced in the cells
T1 construct: gene Npun_R3784

miRFP670nano = target: T2, miRFP670nano (Nostoc punctiforme, UniProt B2J457, V48M/F66C/M67V/Y68F/P72E/S82A/A89S/N92K/Q96R/T98R/I113Y/G123N/H128Y/N140I/N158H/C160L/L177Q/Q180V, form not given); assay: X-ray crystal structure, […] A; type: binding; conditions: covalent thioether, Cys86 to C3^1 of ring A; crystals at pH 4.0; BV from co-expressed heme oxygenase
T2 construct: gene Npun_R3784; single GAF domain, N-terminal alpha1-helix removed, 147 residues, 17 kDa, N-terminal polyhistidine tag, E. coli LMG194 co-expressing heme oxygenase, monomer

- near-infrared fluorescence of E. coli co-expressing heme oxygenase (NpR3784 GAF domain): the GAF domain of NpR3784 CBCR
SMILES: C=CC1=C(C)C(=Cc2[nH]c(C=C3N=C(C=C4NC(=O)C(C)=C4C=C)C(C)=C3CCC(=O)O)c(CCC(=O)O)c2C)NC1=O [biliverdin]
- X-ray crystal structure, 1.95 A (miRFP670nano): BV is covalently attached by a thioether bond between the conserved for CBCRs Cys86 residue

— publication PMC6336887, “Smallest near-infrared fluorescent protein evolved from cyanobacteriochrome as versatile tag for spectral multiplexing” (Nature Communications, 2019)
